Reference: the NIST ThermoML archive (doi:10.1007/s10765-010-0768-y)

Assay: xn = mol fraction of the nth substance listed
Settings: 101 kPa, Liquid, Pycnometric method

C=CC(=O)OCCCC [butyl 2-propenoate] + Cc1cc(C)cc(C)c1
mass density [kg/m3]
Settings | 288.15 K | 293.15 K | 298.15 K | 303.15 K | 308.15 K | 313.15 K | 318.15 K
x1 = 0.0724 | 871.63 | 867.64 | 863.65 | 859.66 | 855.67 | 851.68 | 847.69
x1 = 0.1414 | 873.88 | 869.82 | 865.76 | 861.7 | 857.64 | 853.58 | 849.52
x1 = 0.2135 | 876.24 | 872.11 | 867.99 | 863.87 | 859.75 | 855.63 | 851.51
x1 = 0.2846 | 878.6 | 874.42 | 870.24 | 866.06 | 861.88 | 857.71 | 853.54
x1 = 0.3512 | 880.84 | 876.6 | 872.37 | 868.14 | 863.91 | 859.68 | 855.45
x1 = 0.4223 | 883.26 | 878.97 | 874.68 | 870.39 | 866.1 | 861.81 | 857.53
x1 = 0.4998 | 885.94 | 881.58 | 877.22 | 872.87 | 868.52 | 864.17 | 859.82
x1 = 0.5724 | 888.47 | 884.05 | 879.63 | 875.21 | 870.8 | 866.39 | 861.98
x1 = 0.6578 | 891.46 | 886.97 | 882.48 | 877.99 | 873.5 | 869.02 | 864.54
x1 = 0.7131 | 893.41 | 888.87 | 884.33 | 879.8 | 875.27 | 870.74 | 866.21
x1 = 0.7823 | 895.86 | 891.26 | 886.66 | 882.07 | 877.48 | 872.89 | 868.3
x1 = 0.8563 | 898.49 | 893.83 | 889.17 | 884.52 | 879.87 | 875.22 | 870.57
x1 = 0.9295 | 901.09 | 896.38 | 891.67 | 886.96 | 882.26 | 877.56 | 872.86
x1 = 1 | 903.6 | 898.85 | 894.1 | 889.35 | 884.6 | 879.85 | 875.1
